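Exposure lasted 48 hours, with cells grown in 96-well plates and compounds tested at five concentrations. Here, GI50 denotes the concentration required for 50% inhibition of growth.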 Active and inactive are the calls of the source. Cut-off read from the data, not from the text of the source: active = GI50 up to about 1.1 µM and inactive = higher.
Columns and labels:
Experiment in all cases: DTP human tumour cell line panel, 48 h
[1] = test system: HOP-62
[2] = test system: NCI-H226
[3] = test system: M14
[4] = test system: OVCAR-3
[5] = test system: NCI-H522
[6] = test system: LOX IMVI
[7] = test system: MOLT-4
[8] = test system: SW-620
[9] = test system: HT-29
[10] = test system: NCI/ADR-RES
[11] = test system: Malme-3M
[12] = test system: HCT-116
[13] = test system: SF-268
[14] = test system: OVCAR-5
[15] = test system: U-251
[16] = test system: DU-145
[17] = test system: MDA-MB-435
[18] = test system: EKVX
[19] = test system: 786-0
[20] = test system: SK-MEL-5
[21] = test system: UACC-257
[22] = test system: SNB-75
[23] = test system: ACHN
[24] = test system: RPMI-8226
[25] = test system: HCT-15
[26] = test system: SK-MEL-2
[27] = test system: OVCAR-4
[28] = test system: K562
[29] = test system: CAKI-1
[30] = test system: OVCAR-8
[31] = test system: PC-3
[32] = test system: SN12C
[33] = test system: A549
[34] = test system: UACC-62
[35] = test system: SF-295
[36] = test system: SNB-19
[37] = test system: IGROV-1
[38] = test system: NCI-H460
[39] = test system: SR
[40] = test system: SK-OV-3
[41] = test system: MDA-N
[42] = test system: CCRF-CEM
[43] = test system: Hs-578T
[44] = test system: HL-60
[45] = test system: MCF7
[46] = test system: SK-MEL-28
[47] = test system: NCI-H23
[48] = test system: UO-31
[49] = test system: T47D
[50] = test system: TK-10
[51] = test system: COLO 205
[52] = test system: KM12
[53] = test system: HOP-92
[54] = test system: BT-549
[55] = test system: MDA-MB-231
[56] = test system: SF-539
[57] = test system: HCC 2998
[58] = test system: RXF 393
[59] = test system: A498

`Cc1ccc(S(=O)(=O)N/N=C2/C3C(CC2(C)C)C2(C)CCCC3(C)C2O)cc1` (configuration not stated) was tested, and the GI50 [1] was 30.1 µM (inactive), the GI50 [2] was 17 µM (inactive) and the GI50 [3] was 22.9 µM (inactive). The GI50 [4] was 34.4 µM (inactive), the GI50 [5] was 19.6 µM (inactive) and the GI50 [6] was 13.4 µM (inactive). For the same molecule, the GI50 [7] was 12.9 µM (inactive), the GI50 [8] was > 10 µM (inactive) and the GI50 [9] was 20.1 µM (inactive). The GI50 [10] was 21.2 µM (inactive), the GI50 [11] was 24 µM (inactive) and the GI50 [12] was 18.7 µM (inactive). For the same molecule, the GI50 [13] was 30.5 µM (inactive), the GI50 [14] was > 10 µM (inactive) and the GI50 [15] was 16.3 µM (inactive). For the same molecule, the GI50 [16] was 39.1 µM (inactive), the GI50 [17] was > 10 µM (inactive) and the GI50 [18] was 45.7 µM (inactive). The GI50 [19] was 21.3 µM (inactive), the GI50 [20] was 15.5 µM (inactive) and the GI50 [21] was 16.8 µM (inactive). For the same molecule, the GI50 [22] was 17.7 µM (inactive), the GI50 [23] was > 10 µM (inactive) and the GI50 [24] was 35.6 µM (inactive). The GI50 [25] was 23.2 µM, the GI50 [26] was 21 µM (inactive) and the GI50 [27] was 19.1 µM (inactive). The GI50 [28] was 23.9 µM (inactive), the GI50 [29] was 39.3 µM (inactive) and the GI50 [30] was 32.7 µM (inactive). For the same molecule, the GI50 [31] was 9.59 µM (inactive), the GI50 [32] was 19.9 µM (inactive) and the GI50 [33] was 20 µM (inactive). The GI50 [34] was 14.8 µM (inactive), the GI50 [35] was 15.4 µM (inactive) and the GI50 [36] was 29.4 µM (inactive). The GI50 [37] was 25 µM (inactive), the GI50 [38] was 17.8 µM (inactive) and the GI50 [39] was 20.7 µM (inactive). For the same molecule, the GI50 [40] was 20.9 µM (inactive), the GI50 [41] was 20.1 µM (inactive) and the GI50 [42] was 16.8 µM (inactive). For the same molecule, the GI50 [43] was 19 µM (inactive), the GI50 [44] was 26.1 µM (inactive) and the GI50 [45] was 17.5 µM (inactive). The GI50 [46] was 18.9 µM (inactive), the GI50 [47] was 22.8 µM (inactive) and the GI50 [48] was 26.2 µM (inactive). For the same molecule, the GI50 [49] was 18.2 µM (inactive), the GI50 [50] was 36 µM (inactive) and the GI50 [51] was 16 µM (inactive). The GI50 [52] was 18.3 µM (inactive), the GI50 [53] was 17.2 µM (inactive) and the GI50 [54] was 14.3 µM (inactive).
For `CC(C)(C)c1cc(C(=O)Nc2cc(Br)c(Br)cc2S(N)(=O)=O)cc(C(C)(C)C)c1O`, the GI50 [1] was 20.9 µM (inactive), the GI50 [2] was 13.1 µM (inactive) and the GI50 [3] was 15.2 µM (inactive). The GI50 [4] was 7.91 µM (inactive), the GI50 [5] was 11.8 µM (inactive) and the GI50 [6] was 6.46 µM (inactive). For the same molecule, the GI50 [7] was 4.39 µM (inactive), the GI50 [8] was 9.42 µM (inactive) and the GI50 [9] was 5.01 µM (inactive). The GI50 [11] was 13.5 µM (inactive), the GI50 [12] was 8.24 µM (inactive) and the GI50 [55] was 9.51 µM (inactive). For the same molecule, the GI50 [13] was 13.3 µM (inactive), the GI50 [14] was 12.4 µM (inactive) and the GI50 [15] was 12.5 µM (inactive). The GI50 [16] was 15.3 µM (inactive), the GI50 [17] was 12.3 µM (inactive) and the GI50 [18] was 12.8 µM (inactive). The GI50 [19] was 11 µM (inactive), the GI50 [20] was 12.4 µM (inactive) and the GI50 [21] was 17.9 µM (inactive). The GI50 [22] was 9.31 µM (inactive), the GI50 [23] was 11.3 µM (inactive) and the GI50 [24] was 8.32 µM (inactive). For the same molecule, the GI50 [25] was 3.85 µM, the GI50 [26] was 10 µM (inactive) and the GI50 [27] was 12.1 µM (inactive). For the same molecule, the GI50 [28] was 5.71 µM (inactive), the GI50 [56] was 15.8 µM (inactive) and the GI50 [29] was 9.93 µM (inactive). The GI50 [30] was 13.3 µM (inactive), the GI50 [31] was 10.7 µM (inactive) and the GI50 [32] was 7.24 µM (inactive). For the same molecule, the GI50 [57] was 5.07 µM (inactive), the GI50 [33] was 9.12 µM (inactive) and the GI50 [34] was 6.08 µM (inactive). For the same molecule, the GI50 [35] was 14.2 µM (inactive), the GI50 [36] was 13.3 µM (inactive) and the GI50 [37] was 12.6 µM (inactive). For the same molecule, the GI50 [39] was 6 µM (inactive), the GI50 [40] was 16.4 µM (inactive) and the GI50 [58] was 11.1 µM (inactive). For the same molecule, the GI50 [42] was 4.28 µM (inactive), the GI50 [43] was 11.9 µM (inactive) and the GI50 [45] was 5.37 µM (inactive). For the same molecule, the GI50 [46] was 13.4 µM (inactive), the GI50 [47] was 20 µM (inactive) and the GI50 [48] was 10.5 µM (inactive). The GI50 [49] was 3.24 µM (inactive), the GI50 [50] was 12.9 µM (inactive) and the GI50 [51] was 5.08 µM (inactive). For the same molecule, the GI50 [52] was 5.77 µM (inactive), the GI50 [53] was 6.52 µM (inactive) and the GI50 [54] was 12.2 µM (inactive).
In the case of `Cc1cc(/N=C/c2c(CO)cnc(C)c2O)c(/N=C/c2c(CO)cnc(C)c2O)cc1C.[Zn+2]`, the GI50 [1] is reported as > 100 µM (inactive), the GI50 [2] is reported as > 100 µM (inactive) and the GI50 [3] is reported as > 100 µM (inactive). The GI50 [5] was > 100 µM (inactive), the GI50 [6] was > 100 µM (inactive) and the GI50 [7] was > 100 µM (inactive). The GI50 [9] was > 100 µM (inactive), the GI50 [10] was > 100 µM (inactive) and the GI50 [12] was > 100 µM (inactive). For the same molecule, the GI50 [55] was > 100 µM (inactive), the GI50 [19] was > 100 µM (inactive) and the GI50 [20] was > 100 µM (inactive). The GI50 [22] was > 100 µM (inactive), the GI50 [23] was > 100 µM (inactive) and the GI50 [26] was > 100 µM (inactive). The GI50 [27] was > 100 µM (inactive), the GI50 [56] was > 100 µM (inactive) and the GI50 [29] was > 100 µM (inactive). For the same molecule, the GI50 [30] was > 100 µM (inactive), the GI50 [57] was > 100 µM (inactive) and the GI50 [33] was > 100 µM (inactive). The GI50 [59] was > 100 µM (inactive), the GI50 [34] was > 100 µM (inactive) and the GI50 [35] was > 100 µM (inactive). For the same molecule, the GI50 [36] was > 100 µM (inactive), the GI50 [37] was > 100 µM (inactive) and the GI50 [38] was > 100 µM (inactive). For the same molecule, the GI50 [41] was > 100 µM (inactive), the GI50 [43] was > 100 µM (inactive) and the GI50 [48] was > 100 µM (inactive). The GI50 [50] was > 100 µM (inactive), the GI50 [51] was > 100 µM (inactive) and the GI50 [52] was > 100 µM (inactive). The GI50 [53] was > 100 µM (inactive) and the GI50 [54] was > 100 µM (inactive).
In the case of `O=C1NC(c2cccc3ccccc23)Nc2ccccc21` (configuration not stated), the GI50 [1] is reported as 0.139 µM (active), the GI50 [2] is reported as 0.0875 µM (active) and the GI50 [3] is reported as 0.0298 µM (active). For the same molecule, the GI50 [4] was 0.015 µM (active), the GI50 [6] was 0.0906 µM (active) and the GI50 [7] was 0.0528 µM (active). The GI50 [8] was 0.0277 µM (active), the GI50 [10] was < 0.0199 µM (active) and the GI50 [11] was 0.0463 µM (active). For the same molecule, the GI50 [12] was 0.0336 µM (active), the GI50 [55] was 0.0873 µM (active) and the GI50 [13] was 0.832 µM (active). For the same molecule, the GI50 [14] was 0.133 µM (active), the GI50 [15] was 0.0336 µM (active) and the GI50 [16] was 0.064 µM (active). For the same molecule, the GI50 [17] was 0.0153 µM (active), the GI50 [18] was 0.143 µM (active) and the GI50 [19] was 0.0593 µM (active). The GI50 [20] was < 0.0202 µM (active), the GI50 [21] was 0.0465 µM (active) and the GI50 [22] was 0.0111 µM (active). For the same molecule, the GI50 [23] was 0.0708 µM (active), the GI50 [24] was 0.0257 µM (active) and the GI50 [25] was less than 0.0224 µM. For the same molecule, the GI50 [26] was 0.04 µM (active), the GI50 [27] was 0.00931 µM (active) and the GI50 [28] was < 0.0212 µM (active). The GI50 [56] was 0.0363 µM (active), the GI50 [29] was < 0.0409 µM (active) and the GI50 [30] was 0.105 µM (active). The GI50 [31] was 0.0423 µM (active), the GI50 [32] was 0.132 µM (active) and the GI50 [57] was 0.0736 µM (active). For the same molecule, the GI50 [33] was 0.0968 µM (active), the GI50 [59] was 0.0262 µM (active) and the GI50 [34] was < 0.0184 µM (active). For the same molecule, the GI50 [35] was < 0.0202 µM (active), the GI50 [36] was 0.0399 µM (active) and the GI50 [37] was 0.0457 µM (active). The GI50 [38] was 0.0506 µM (active), the GI50 [39] was < 0.0153 µM (active) and the GI50 [40] was 0.0362 µM (active). The GI50 [58] was 0.0302 µM (active), the GI50 [42] was 0.01 µM (active) and the GI50 [43] was 0.0147 µM (active). The GI50 [45] was < 0.0171 µM (active), the GI50 [46] was 0.127 µM (active) and the GI50 [47] was 0.0931 µM (active). The GI50 [48] was 1.05 µM (active), the GI50 [50] was 0.157 µM (active) and the GI50 [51] was 0.0458 µM (active). The GI50 [52] was 0.0399 µM (active), the GI50 [53] was 0.172 µM (active) and the GI50 [54] was 0.454 µM (active).

— ChEMBL document CHEMBL1201862, “PubChem BioAssay data set” (2004)
